Results: ChEMBL document CHEMBL1141247, “Hydroxyalkenylresorcinols from Stylogyne turbacensis” (J Nat Prod, 2007)

Key:
Leishmania donovani = assay: Antileishmanial activity against Leishmania donovani; assay type: functional, organism-based
NCI-H460 [1] = assay: Cytotoxicity against human NCI-H460; assay type: functional, cell-based
MCF7 = assay: Cytotoxicity against human MCF7 cells; assay type: functional, cell-based
Vero = assay: Cytotoxicity against […] Vero cells by MTT assay; assay type: cell-based, Homo sapiens; conditions: Chlorocebus sabaeus
Trypanosoma cruzi = assay: Antitrypanosomal activity against Trypanosoma cruzi; assay type: functional, organism-based
NCI-H460 [2] = assay: Cytotoxicity against human NCI-H460 at 20 ug/ml; assay type: functional

SMILES	IC50 (Leishmania donovani) [µM]	IC50 (Trypanosoma cruzi) [µM]	IC50 (NCI-H460 [1]) [µM]	IC50 (MCF7) [µM]	IC50 (Vero) [µM]	inhibition at 20 µg/mL (NCI-H460 [2]) [%]
CCCCCC[C@H](O)C/C=C\CCCCCCCc1cc(O)cc(O)c1	7	138	16	14	76	
CC/C=C\C[C@@H](O)CC/C=C\CCCCCCCc1cc(O)cc(O)c1	3	22	> 10	22	30	< 50
CC/C=C\C/C=C\C/C=C\CCCCCCCc1cc(O)cc(O)c1	0.6	25	8.7	8.7	104	
C[C@@H]1[C@H](O)[C@@H](C)/C=C/C=C/C=C/C=C/C=C/C=C/C=C/[C@H](O[C@@H]2O[C@H](C)[C@@H](O)[C@H](N)[C@@H]2O)C[C@@H]2O[C@](O)(C[C@@H](O)C[C@@H](O)[C@H](O)CC[C@@H](O)C[C@@H](O)CC(=O)O[C@H]1C)C[C@H](O)[C@H]2C(=O)O [AMPHOTERICIN B]	0.09					
CC1CS(=O)(=O)CCN1/N=C/c1ccc([N+](=O)[O-])o1 (stereo unspecified) [NIFURTIMOX]		6				

Second part, led by results:

IC50 (Leishmania donovani) [µM]	IC50 (Trypanosoma cruzi) [µM]	SMILES	IC50 (NCI-H460 [1]) [µM]	IC50 (MCF7) [µM]	IC50 (Vero) [µM]	inhibition at 20 µg/mL (NCI-H460 [2]) [%]
0.6	30	CCCCC/C=C\C/C=C\CCCCCCCc1cc(O)cc(O)c1	8.7	8.7	148	
	117	CCCCC/C=C\C/C=C\CCCCCCCc1cc(OC(C)=O)cc(OC(C)=O)c1			124	
	117	CC/C=C\C/C=C\C/C=C\CCCCCCCc1cc(OC(C)=O)cc(OC(C)=O)c1			138	
	102	CCCCCC[C@@H](C/C=C\CCCCCCCc1cc(OC(C)=O)cc(OC(C)=O)c1)OC(C)=O			75	
	107	CC/C=C\C[C@H](CC/C=C\CCCCCCCc1cc(OC(C)=O)cc(OC(C)=O)c1)OC(C)=O			82	
